Results from patent US20180110871A1, “DUAL DISULFIDE DRUG CONJUGATES” (ENDOCYTE, INC., priority 2015, published 2018).

Tests used:
KB cells = experiment: In vitro activity in KB cells (3H-thymidine incorporation); format: cell-based; settings: 3H-thymidine incorporation relative to untreated controls
Procedure: Cells were seeded in 24-well Falcon plates and allowed to form nearly confluent monolayers overnight. After one rinse with 1 mL of fresh FFRPMI/HIFCS, each well received 1 mL, of medium containing increasing concentrations of test agent (3 wells per sample). Cells were pulsed with targeted agents for 2 hr at 37° C., rinsed 4 times with 0.5 mL of medium, and then chased in 1 mL of fresh medium up to 70 hr. Cells were treated with non-targeted agent EC0347 for a continuous 72 h. Spent medium was aspirated from all wells and replaced with fresh medium containing 5 μCi/mL ^3H-thymidine. After a further 2 hr 37° C. incubation, cells were washed 3 times with 0.5 mL of PBS and then treated with 0.5 mL of ice-cold […] per well. After 15 min, the trichloroacetic acid was aspirated and the cell material solubilized by the addition of 0.5 mL of 0.25 N sodium hydroxide for 15 min. Four hundred and fifty microliters of each solubilized sample were transferred to scintillation vials containing 3 mL of Ecolume scintillation cocktail and then counted in a liquid scintillation counter. Final tabulated results were expressed as the percentage of ^3H-thymidine incorporation relative to untreated controls and IC50 values calculated using Graphpad Prism software.

subcutaneous KB tumors = experiment: Antitumor activity in KB tumor model; format: in vivo, Female Balb/c nu/nu mice; settings: FIG. 1; 2 μmol/kg, single-dose; n=5; mice with subcutaneous KB tumors
Procedure: Female Balb/c nu/nu mice were fed ad libitum with folate-deficient chow (Harlan diet #TD01013) for the duration of the experiment. KB tumor cells were inoculated subcutaneously at the right flank of each mouse. Mice were dosed after the tumors have reached a range of 107-152 mm^3 through the lateral tail vein under sterile conditions in a volume of 200 μL of phosphate-buffered saline (PBS).
Growth of each s.c. tumor was followed by measuring the tumor two times per week. Tumors were measured in two perpendicular directions using Vernier calipers, and their volumes were calculated as 0.5×L×W^2, where L=measurement of longest axis in mm and W=measurement of axis perpendicular to L in mm.

`CCCC(=O)OCN(C(=O)[C@@H](NC(=O)[C@H]1CCCCN1C)C(C)CC)[C@H](C[C@@H](OC(C)=O)c1nc(C(=O)N[C@@H](Cc2ccc(O)cc2)C[C@H](C)C(=O)NN)cs1)C(C)C` (stereo partly drawn) [EC0347, Tubulysin B Hydrazide, reference compound] gave an IC50 (KB cells; Homo sapiens, non-targeted agent, continuous 72 h) of 1.5 nM.
With `C#CCN(Cc1ccc2nc(N)[nH]c(=O)c2c1)c1ccc(C(=O)N[C@@H](CCC(=O)OCCSSC[C@H](NC(=O)[C@H](CCC(=O)NC[C@H](O)[C@@H](O)[C@H](O)[C@H](O)CO)NC(=O)[C@H](CCC(=O)O)NC(=O)[C@H](CCC(=O)NC[C@H](O)[C@@H](O)[C@H](O)[C@H](O)CO)NC(=O)[C@H](CCC(=O)O)NC(=O)[C@H](CCC(=O)NC[C@H](O)[C@@H](O)[C@H](O)[C@H](O)CO)NC(=O)CCSSCCOC(=O)NNC(=O)[C@@H](C)C[C@H](Cc2ccc(O)cc2)NC(=O)c2csc([C@@H](C[C@H](C(C)C)N(COC(=O)CCC)C(=O)[C@@H](NC(=O)[C@H]3CCCCN3C)C(C)CC)OC(C)=O)n2)C(=O)O)C(=O)O)cc1` (stereo partly drawn) [EC2133] the IC50 (KB cells; targeted agents pulsed 2 hr at 37° C., chased up to 70 hr) was 0.8 nM and the “cure (number of mice)” value (subcutaneous KB tumors) was 1.
